From US9738655B2, “Tetrahydroisoquinolines containing substituted azoles as factor XIa inhibitors” (BRISTOL-MYERS SQUIBB COMPANY, priority 2013, dated 2017)
Where a name gives a salt, the structure may show the parent alone. Read-outs that look alike come from different tables or passages of the source.

Experiments:
[1] = target: purified human Factor XIa (Homo sapiens (Human), UniProt P03951); assay: Factor XIa enzyme inhibition assay (chromogenic substrate S-2366)
[2] = target: purified human plasma kallikrein (Homo sapiens (Human), UniProt P03952); assay: Plasma kallikrein enzyme inhibition assay (chromogenic substrate S-2302); format: biochemical
[3] = read-out: Factor XIa Ki, measured at 25° C.
[4] = measured at 25° C. (no asterisk)

Chain of purified human Factor XIa (P03951 388-625): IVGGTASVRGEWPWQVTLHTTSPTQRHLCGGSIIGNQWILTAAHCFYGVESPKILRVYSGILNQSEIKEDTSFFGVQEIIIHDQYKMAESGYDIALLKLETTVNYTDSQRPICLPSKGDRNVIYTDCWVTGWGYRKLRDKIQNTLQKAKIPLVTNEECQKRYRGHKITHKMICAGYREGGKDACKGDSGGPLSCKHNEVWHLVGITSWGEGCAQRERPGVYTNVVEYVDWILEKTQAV
Chain of purified human Factor XIa (P03951 19-387 partner): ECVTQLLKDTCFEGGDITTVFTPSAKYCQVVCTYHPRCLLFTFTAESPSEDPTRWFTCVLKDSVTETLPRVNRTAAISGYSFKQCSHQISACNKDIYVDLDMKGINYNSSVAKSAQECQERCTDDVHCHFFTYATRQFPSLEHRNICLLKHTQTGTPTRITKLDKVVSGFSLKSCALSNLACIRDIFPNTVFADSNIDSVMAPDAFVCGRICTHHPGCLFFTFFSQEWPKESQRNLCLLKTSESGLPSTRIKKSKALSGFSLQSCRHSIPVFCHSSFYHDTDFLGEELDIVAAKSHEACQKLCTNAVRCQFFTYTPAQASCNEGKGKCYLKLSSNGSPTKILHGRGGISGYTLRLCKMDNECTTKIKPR
Chain of purified human plasma kallikrein (P03952 391-638): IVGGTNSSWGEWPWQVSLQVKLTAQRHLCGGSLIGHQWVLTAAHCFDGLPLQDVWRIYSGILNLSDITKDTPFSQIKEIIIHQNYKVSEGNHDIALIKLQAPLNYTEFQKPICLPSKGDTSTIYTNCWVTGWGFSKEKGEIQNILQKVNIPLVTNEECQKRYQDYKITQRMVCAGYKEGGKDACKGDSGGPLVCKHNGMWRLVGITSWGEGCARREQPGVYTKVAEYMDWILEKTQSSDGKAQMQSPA
Chain of purified human plasma kallikrein (P03952 20-390 partner): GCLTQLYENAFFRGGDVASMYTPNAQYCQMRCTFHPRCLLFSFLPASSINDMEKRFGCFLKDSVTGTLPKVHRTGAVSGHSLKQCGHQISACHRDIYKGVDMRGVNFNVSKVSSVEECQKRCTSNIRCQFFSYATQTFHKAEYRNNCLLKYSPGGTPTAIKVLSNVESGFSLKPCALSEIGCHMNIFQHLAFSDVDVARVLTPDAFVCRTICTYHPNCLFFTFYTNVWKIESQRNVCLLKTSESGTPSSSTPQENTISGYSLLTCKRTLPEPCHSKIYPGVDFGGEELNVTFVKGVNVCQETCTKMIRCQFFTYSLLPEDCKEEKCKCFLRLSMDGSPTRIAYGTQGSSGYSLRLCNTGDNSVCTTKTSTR

Row | Ki [1, 3] [nM] | Ki ([2]; measured at 37° C. (*)) [nM] | Ki [2, 4] [nM] | Ki [1] [nM] | SMILES | Ki ([1]; read-out: Factor XIa Ki) [nM]
1 | 3510 | > 6000 |  |  | COC1CCN(c2cccc3c2CCN(C(=O)c2cnn(-c4cccnc4)c2)C3C(=O)Nc2ccc(C(=O)O)cc2)CC1 (stereo not drawn) [Example 330, 4-(5-(4-methoxypiperidin-1-yl)-2-(1-(pyridin-3-yl)-1H-pyrazolc-4-carbonyl)-1,2,3,4-tetrahydroisoquinoline-1-carboxamido)benzoic acid, 2 TFA salt] | 
2 | 28.3 | 126 |  |  | O=C(Nc1ccc2cnccc2c1)C1c2cccc(-c3cncnc3)c2CCN1C(=O)c1cn(-c2cccc(Cl)c2F)nn1 (stereo not drawn) [Example 130, 2-(1-(3-chloro-2-fluorophenyl)-1H-1,2,3-triazol-4-carbonyl)-N-(isoquinolin-6-yl)-5-(pyrimidin-5-yl)-1,2,3,4-tetrahydroisoquinoline-1-carboxamide, TFA salt] | 
3 |  | 66.7 |  | 8.78 | COC1CCN(c2cccc3c2CCN(C(=O)[C@H]2CC(c4cccc(Cl)c4F)=NO2)[C@@H]3C(=O)Nc2cccnc2)CC1 (single isomer, unassigned) [Example 241, TFA salt] | 
4 | < 5 | 55.8 |  |  | COC(=O)c1ccc(NC(=O)[C@@H]2c3cccc(-c4cncnc4)c3CCN2C(=O)[C@H]2CC(c3cccc(Cl)c3F)=NO2)cc1 [Example 28, Methyl 4-((S)-2-((R)-3-(3-chloro-2-fluorophenyl)-4,5-dihydroisoxazole-5-carbonyl)-5-(pyrimidin-5-yl)-1,2,3,4-tetrahydroisoquinoline-1-carboxamido)benzoate] | 
5 | < 5 | 399 |  |  | O=C(Nc1ccc(-c2ncc[nH]2)cc1)[C@H]1c2cccc(-c3cncnc3)c2CCN1C(=O)[C@H]1CC(c2cccc(Cl)c2F)=NO1 [Example 135, (R)-N-(4-(1H-imidazol-2-yl)phenyl)-2-((R)-3-(3-chloro-2-fluorophenyl)-4,5-dihydroisoxazole-5-carbonyl)-5-(pyrimidin-5-yl)-1,2,3,4-tetrahydroisoquinoline-1-carboxamide TFA salt] | 
6 |  |  | 787 | 18.4 | COC1CCN(c2cccc3c2CCN(C(=O)c2cc(-c4cccc(Cl)c4)n[nH]2)C3C(=O)Nc2ccc(C(=O)O)cc2)CC1 (racemic) [Example 311, 4-(2-(3-(3-chlorophenyl)-1H-pyrazole-5-carbonyl)-5-(4-methoxypiperidin-1-yl)-1,2,3,4-tetrahydroisoquinoline-1-carboxamido)benzoic acid, TFA salt] | 
7 |  |  | 11.9 | < 5 | COCCOc1cccc2c1CCN(C(=O)c1cn(-c3cccc(Cl)c3F)nn1)C2C(=O)Nc1ccc(C(=O)O)cc1 (stereo not drawn) [Example 113, 4-(2-(1-(3-Chloro-2-fluorophenyl)-1H-1,2,3-triazole-4-carbonyl)-5-(2-methoxyethoxy)-1,2,3,4-tetrahydroisoquinoline-1-carboxamido)benzoic acid] | 
8 | 13.2 |  | 21.9 |  | O=C(O)c1ccc(NC(=O)C2c3cccc(-c4cnoc4)c3CCN2C(=O)c2cn(-c3cccc(Cl)c3F)nn2)cc1 (stereo not drawn) [Example 159, 4-(2-(1-(3-chloro-2-fluorophenyl)-1H-1,2,3-triazole-4-carbonyl)-5-(isoxazol-4-yl)-1,2,3,4-tetrahydroisoquinoline-1-carboxamido)benzoic acid] | 
9 | < 5 |  | 2.57 |  | CC(C)c1nnc2n1CCN(c1cccc3c1CCN(C(=O)c1cn(-c4cccc(Cl)c4F)nn1)[C@@H]3C(=O)Nc1ccc(C(=O)O)cc1)C2 [Example 66, (S)-4-(2-(1-(3-chloro-2-fluorophenyl)-1H-1,2,3-triazole-4-carbonyl)-5-(3-isopropyl-5,6-dihydro-[1,2,4]triazolo[4,3-a]pyrazin-7(8H)-yl)-1,2,3,4-tetrahydroisoquinoline-1-carboxamido)benzoic acid, TFA salt] | 
10 | < 5 |  | 4.55 |  | N#Cc1ccc(-c2cccc3c2CCN(C(=O)c2cn(-c4cccc(Cl)c4F)nn2)[C@@H]3C(=O)Nc2ccc(C(=O)O)cc2)cn1 [Example 16, (S)-4-(2-(1-(3-Chloro-2-fluorophenyl)-1H-1,2,3-triazole-4-carbonyl)-5-(6-cyanopyridin-3-yl)-1,2,3,4-tetrahydroisoquinoline-1-carboxamido)benzoic acid, TFA salt] | 
11 | 9.16 |  | 36.1 |  | O=C(O)c1ccc(NC(=O)C2c3cccc(N4CCCCC4)c3CCN2C(=O)c2cn(-c3cccc(Cl)c3F)nn2)cc1 (stereo not drawn) [Example 78, 4-(2-(1-(3-chloro-2-fluorophenyl)-1H-1,2,3-triazole-4-carbonyl)-5-(piperidin-1-yl)-1,2,3,4-tetrahydroisoquinoline-1-carboxamido)benzoic acid, TFA salt] | 
12 | < 5 | 60.3 |  |  | O=C(Nc1ccc(-c2ncn[nH]2)cc1)C1c2cccc(-c3cncnc3)c2CCN1C(=O)c1cn(-c2cccc(Cl)c2F)nn1 (stereo not drawn) [Example 131, N-(4-(1H-1,2,4-triazol-5-yl)phenyl)-2-(1-(3-chloro-2-fluorophenyl)-1H-1,2,3-triazole-4-carbonyl)-5-(pyrimidin-5-yl)-1,2,3,4-tetrahydroisoquinoline-1-carboxamide, TFA salt] | 
13 | 38 | 250 |  |  | COC1CCN(c2cccc3c2CCN(C(=O)c2cn(-c4cccc(Cl)c4F)nn2)C3C(=O)Nc2ccccc2)CC1 (stereo not drawn) [Example 118, 2-(1-(3-Chloro-2-fluorophenyl)-1H-1,2,3-triazole-4-carbonyl)-5-(4-methoxypiperidin-1-yl)-N-phenyl-1,2,3,4-tetrahydroisoquinoline-1-carboxamide, TFA salt] | 
14 | < 5 |  | 3.28 |  | CNC(=O)c1ccc(-c2cccc3c2CCN(C(=O)c2cn(-c4cccc(Cl)c4F)nn2)[C@@H]3C(=O)Nc2ccc(C(=O)O)cc2)cn1 [Example 44, (S)-4-(2-(1-(3-Chloro-2-fluorophenyl)-1H-1,2,3-triazole-4-carbonyl)-5-(6-(methylcarbamoyl)pyridin-3-yl)-1,2,3,4-tetrahydroisoquinoline-1-carboxamido)benzoic acid, TFA salt] | 

Further lines, the molecule ahead of its results:

Row | SMILES | Ki [1, 3] [nM] | Ki ([2]; measured at 37° C. (*)) [nM] | Ki [2, 4] [nM] | Ki [1] [nM] | Ki ([1]; read-out: Factor XIa Ki) [nM]
15 | Nc1ncc(-c2cccc3c2CCN(C(=O)c2cn(-c4cccc(Cl)c4F)nn2)C3C(=O)Nc2ccc(C(=O)O)cc2)cn1 (stereo not drawn) [Example 30, 4-(5-(2-aminopyrimidin-5-yl)-2-(1-(3-chloro-2-fluorophenyl)-1H-1,2,3-triazole-4-carbonyl)-1,2,3,4-tetrahydroisoquinoline-1-carboxamido)benzoic acid, TFA salt] | < 5 |  | 15.7 |  | 
16 | COC(=O)[C@H]1CC[C@@H](NC(=O)C2c3cccc(-c4cncnc4)c3CCN2C(=O)c2cn(-c3cccc(Cl)c3F)nn2)CC1 (stereo partly drawn) [Example 132, (1R,4R)-methyl 4-(2-(1-(3-chloro-2-fluorophenyl)-1H-1,2,3-triazole-4-carbonyl)-5-(pyrimidin-5-yl)-1,2,3,4-tetrahydroisoquinoline-1-carboxamido) cyclohexanecarboxylate] | 124 | 1620 |  |  | 
17 | CN(C)CCNC(=O)c1ccc(-c2cccc3c2CCN(C(=O)c2cn(-c4cccc(Cl)c4F)nn2)[C@H]3C(=O)Nc2ccc(C(=O)O)cc2)cc1 [Example 11, (R)-4-(2-(1-(3-Chloro-2-fluorophenyl)-1H-1,2,3-triazole-4-carbonyl)-5-(4-((2-(dimethylamino)ethyl)carbamoyl)phenyl)-1,2,3,4-tetrahydroisoquinoline-1-carboxamido)benzoic acid TFA salt] |  |  | 1060 |  | 165
18 | O=C(O)c1ccc(NC(=O)C2c3cccc(OC4CCNCC4)c3CCN2C(=O)c2cn(-c3cccc(Cl)c3F)nn2)cc1 (stereo not drawn) [Example 112, 4-(2-(1-(3-Chloro-2-fluorophenyl)-1H-1,2,3-triazole-4-carbonyl)-5-(piperidin-4-yloxy)-1,2,3,4-tetrahydroisoquinoline-1-carboxamido)benzoic acid, TFA salt] | < 5 |  | 3.16 |  | 
19 | COC1CCN(c2cccc3c2CCN(C(=O)c2cn(-c4cccc(Cl)c4F)cn2)[C@H]3C(=O)Nc2ccc(C(=O)O)cc2)CC1 [Example 272, (R)-4-(2-(1-(3-chloro-2-fluorophenyl)-1H-imidazole-4-carbonyl)-5-(4-methoxypiperidin-1-yl)-1,2,3,4-tetrahydroisoquinoline-1-carboxamido)benzoic acid, TFA salt] | 976 | > 6000 |  |  | 
20 | O=C(NC12CCC(C(=O)O)(CC1)CC2)[C@H]1c2cccc(-c3cncnc3)c2CCN1C(=O)c1cn(-c2cccc(Cl)c2F)nn1 (single isomer, unassigned; enantiomer b) [Example 145, 4-(2-{[1-(3-Chloro-2-fluorophenyl)-1H-1,2,3-triazol-4-yl]carbonyl}-5-(pyrimidin-5-yl)-1,2,3,4-tetrahydroisoquinoline-1-amido)bicyclo[2.2.2]octane-1-carboxylic acid, 1 TFA (enantiomer B)] | 7.87 | 252 |  |  | 
21 | O=C(O)c1ccc(NC(=O)C2c3ccccc3CCN2C(=O)c2cn(-c3cccc(Cl)c3F)nn2)cc1 (stereo not drawn) [Example 1, 4-(2-(1-(3-Chloro-2-fluorophenyl)-1H-1,2,3-triazole-4-carbonyl)-1,2,3,4-tetrahydroisoquinoline-1-carboxamido)benzoic acid] | 13.5 |  | 20.8 |  | 
22 | O=C(O)c1ccc(NC(=O)C2c3cccc(Br)c3CCN2C(=O)c2cn(-c3cccc(Cl)c3F)nn2)cc1 (stereo not drawn) [Example 110, 4-(5-Bromo-2-(1-(3-chloro-2-fluorophenyl)-1H-1,2,3-triazole-4-carbonyl)-1,2,3,4-tetrahydroisoquinoline-1-carboxamido)benzoic acid] | 72.7 |  | 23 |  | 
23 | COC1CCN(c2cccc3c2CCN(C(=O)c2cnc(-c4cccc(Cl)c4F)s2)C3C(=O)Nc2ccc(C(=O)O)cc2)CC1 (racemic) [Example 270, 4-(2-(2-(3-chloro-2-fluorophenyl)thiazole-5-carbonyl)-5-(4-methoxypiperidin-1-yl)-1,2,3,4-tetrahydroisoquinoline-1-carboxamido)benzoic acid, TFA salt] |  |  | 269 | 20.4 | 
24 | COC1CCN(c2cccc3c2CCN(C(=O)[C@H]2CC(c4cccc(Cl)c4F)=NO2)[C@@H]3C(=O)Nc2ccccc2F)CC1 (single isomer, unassigned) [Example 235, TFA salt] |  | 478 |  | 23.2 | 
